Experiments:
T cells = assay: T cell proliferation assay with allo PBLs (3H-thymidine incorporation) with synthetic MUC-1 tandem repeat peptides; type: cell-based, human; settings: peptide 10 μg/ml, 6-7 days then 5 days, FIG. 2
Method: Enriched T cell populations were purified from buffy coats obtained from normal red cross donors using nylon wool columns by previously reported procedures. […] For the allo MLR, mitomycin C treated allogeneic PBLs were co-cultured with purified T cells in the presence or absence of affinity purified MUC-1 mucin or control OSM. In most of the experiments, the T cells were cultured 6-7 days in AIM V medium in the absence or presence of MUC-1, MUC-1 derivative or OSM at the indicated concentration. After this time, the T cells were harvested, washed and cultured as indicated.
For the experiment depicted in FIG. 2, purified T cells (10^6/ml) were cultured in AIM V medium with allo PBLs in the absence or presence of MUC-1, MUC-1 derivative or OSM 10 μg/ml for 6-7 days. T cells were harvested and plated in 96 well flat bottom plates at 10^5/well with allo PBLs (10^5/well), in the presence or absence of affinity purified MUC-1, MUC-1 derivative or OSM. Control cultures were treated with either 50 U/ml IL-2 or 1 μg/ml anti-CD28 Mab. After 4 days of culture, ^3H-thymidine (1 μCi/well) was added. The cells were harvested on the fifth day and ^3H-thymidine incorporation was measured by liquid scintillation.

T-cells = assay: Relief of 100 mer MUC1 peptide-induced suppression/anergy of T-cell proliferation (allo-PBLs, 3H-thymidine incorporation); type: cell-based, human; settings: 100 mer MUC1 peptide 25 μg/ml; 16 mer at varying doses; FIG. 3
Method: In the experiment of FIG. 3, purified T-cells (10^6/ml) were cultured in AIM V medium with allo-PBLs in the presence (100 mer MUC1 peptide group; right panel) or absence (media group; left panel) of 100 mer MUC1 synthetic peptide (25 μg/ml) for 6-7 days. At this time, the T-cells were harvested and plated in 96 well flat bottom plates at 10^5/well with allo-PBLs (10^5/well) in the presence or absence of 100 mer MUC1 peptide (25 μg/ml), and the 16 mer MUC1 peptide (less than one tandem repeat) at varying doses. The wells were pulsed with ^3H-thymidine (1 μCi/well) on the fourth day of culture followed by harvesting on the fifth day. ^3H-Thymidine incorporation into the DNA of proliferating T-cells was measured by liquid scintillation counter. Data are shown as mean CPM±standard deviations. Each group was set up in replicates of 3 wells.

human T-cell cultures = assay: Mixed lymphocyte reaction / T-cell proliferation (3H-thymidine incorporation) with affinity purified MUC-1 mucin; type: cell-based; settings: purified MUC-1 mucin added to human T-cell cultures; FIG. 1
Method: The mixed lymphocyte reaction is conducted by mixing the lymphocytes of HLA disparate individuals in in vitro tissue cultures. The “responder population” in this experiment is purified T-cells from one population, while the “stimulator” population in this experiment is the peripheral blood lymphocytes obtained from an HLA mismatched individual donor. The two cell populations were mixed and cultured either in the presence or absence of various doses of B27.29 affinity purified MUC-1 mucin that was purified from a pleural effusion fluid. The results of this experiment are depicted in FIG. 1.
In the experiment depicted in FIG. 1, 10^6 T-cells were cultured in AIM V medium in presence of 10^6 allo-PBLs (mitomycin C treated) with or without the indicated concentration of affinity purified MUC1 or OSM for 6-7 days. At this time the T-cells were harvested and plated at 10^5/well in 96 well flat bottom plates and the polyclonal stimuli allo-PBLs (10^5/well), or anti-CD3 (1 μg/ml) or PHA (0.2 μg/ml), in presence or absence of MUC1 or OSM for 4 days. Each group was set up in a replicate of five wells. ^3H-thymidine (1 μCi/well) was added and the culture plates were further incubated for 18-24 h before harvesting. ^3H-thymidine incorporation into the DNA of proliferating T-cells was measured by liquid scintillation counting. […]

| Substance | level of T cell proliferation relative to control (T cells) | reversal of suppression/anergy induced by a MUC-1 100-mer peptide (T-cells) | T-cell proliferation against allo-antigenic (or mitogenic) stimulus in vitro (human T-cell cultures) |
| --- | --- | --- | --- |
| GVTSAPDTRPAPGSTA [BP16] | not observed | reverses |  |
| purified human MUC-1 mucin: B27.29 affinity purified MUC-1 mucin glycoprotein from cancer patient pleural effusion/ascites fluid |  |  | strongly inhibits |
